In paper PMC5684552 (Evidence-based Complementary and Alternative Medicine : eCAM, 2017):

How the values were obtained:
[1] = system: control oocytes; assay: Two-electrode voltage clamp of control oocytes injected with H2O; type: cell-based, X. laevis; settings: for inward peak current in control oocytes: oocytes injected with 40 nl H2O
[2] = molecular target: human TRPV1 receptor channel (Homo sapiens, UniProt Q8NER1); assay: Two-electrode voltage clamp of capsaicin-induced current in Xenopus oocytes expressing wild type human TRPV1; type: cell-based; settings: for inhibition of capsaicin-induced current: 100 μM gomisin A plus 1 μM capsaicin, voltage ramp
[3] = molecular target: TRPV1 K466A mutant (Homo sapiens, UniProt Q8NER1, form not given, species not given); type: cell-based; settings: holding potential −80 mV
[4] = molecular target: TRPV1 T468A mutant (Homo sapiens, UniProt Q8NER1, T469A, species not given); type: cell-based; settings: holding potential −80 mV
[5] = molecular target: TRPV1 N467A mutant (Homo sapiens, UniProt Q8NER1, form not given, species not given); type: cell-based; settings: holding potential −80 mV
[6] = molecular target: TRPV1 V456A mutant (Homo sapiens, UniProt Q8NER1, V456A, species not given); type: cell-based; settings: holding potential −80 mV
[7] = molecular target: TRPV1 Y453A mutant (Homo sapiens, UniProt Q8NER1, Y454A, species not given); type: cell-based; settings: holding potential −80 mV
[8] = molecular target: TRPV1 A452Y mutant (Homo sapiens, UniProt Q8NER1, A453Y); type: cell-based; settings: holding potential −80 mV
[9] = molecular target: TRPV1 R455A mutant (Homo sapiens, UniProt Q8NER1, R456A, species not given); type: cell-based; settings: holding potential −80 mV
[10] = molecular target: TRPV1 Y454A mutant (Homo sapiens, UniProt Q8NER1, Y455A); type: cell-based; settings: holding potential −80 mV
[11] = molecular target: TRPV1 L465A mutant (Homo sapiens, UniProt Q8NER1, form not given, species not given); type: cell-based; settings: holding potential −80 mV
[12] = molecular target: TRPV1 YNA2 double mutant (Homo sapiens, UniProt Q8NER1, Y454A, form not given, species not given); type: cell-based; settings: holding potential −80 mV
[13] = molecular target: TRPV1 V469A mutant (Homo sapiens, UniProt Q8NER1, form not given, species not given); type: cell-based; settings: holding potential −80 mV
Chain of TRPV1 V469A mutant (Q8NER1 whole entry, stated change not applied): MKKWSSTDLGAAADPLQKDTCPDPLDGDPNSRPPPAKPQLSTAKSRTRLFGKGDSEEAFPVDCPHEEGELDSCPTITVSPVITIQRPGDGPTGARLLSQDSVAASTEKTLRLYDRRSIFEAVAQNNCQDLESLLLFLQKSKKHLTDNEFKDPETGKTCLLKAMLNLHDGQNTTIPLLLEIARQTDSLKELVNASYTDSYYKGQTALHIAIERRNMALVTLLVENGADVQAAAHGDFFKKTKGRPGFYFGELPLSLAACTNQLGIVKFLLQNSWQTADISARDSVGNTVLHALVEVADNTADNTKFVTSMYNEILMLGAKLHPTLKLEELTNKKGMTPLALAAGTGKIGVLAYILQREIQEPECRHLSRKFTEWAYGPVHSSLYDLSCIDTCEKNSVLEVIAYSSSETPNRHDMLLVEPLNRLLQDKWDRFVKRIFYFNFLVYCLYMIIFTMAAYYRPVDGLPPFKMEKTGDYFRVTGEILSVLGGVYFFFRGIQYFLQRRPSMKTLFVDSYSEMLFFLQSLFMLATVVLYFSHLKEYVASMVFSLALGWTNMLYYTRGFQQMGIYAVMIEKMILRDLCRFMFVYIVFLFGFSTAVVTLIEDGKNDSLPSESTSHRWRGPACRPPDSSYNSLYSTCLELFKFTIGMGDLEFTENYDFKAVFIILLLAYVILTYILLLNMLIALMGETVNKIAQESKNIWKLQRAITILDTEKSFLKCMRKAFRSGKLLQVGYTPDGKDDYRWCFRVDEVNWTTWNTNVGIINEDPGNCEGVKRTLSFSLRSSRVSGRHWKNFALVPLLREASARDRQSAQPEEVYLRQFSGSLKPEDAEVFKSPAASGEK

Chain of human TRPV1 receptor channel (Q8NER1 whole entry): as the sequence (Q8NER1 whole entry, stated change not applied) above
Chain of TRPV1 L465A mutant (Q8NER1 whole entry, stated change not applied): as above
Chain of TRPV1 N467A mutant (Q8NER1 whole entry, stated change not applied): as above
Chain of TRPV1 A452Y mutant (Q8NER1 whole entry A453Y): as the sequence (Q8NER1 whole entry, stated change not applied) above, with A453Y counted along it
Chain of TRPV1 T468A mutant (Q8NER1 whole entry T469A): as the sequence (Q8NER1 whole entry, stated change not applied) above, with T469A counted along it
Chain of TRPV1 R455A mutant (Q8NER1 whole entry R456A): as the sequence (Q8NER1 whole entry, stated change not applied) above, with R456A counted along it
Chain of TRPV1 V456A mutant (Q8NER1 1-837 isoform Q8NER1-3 V456A): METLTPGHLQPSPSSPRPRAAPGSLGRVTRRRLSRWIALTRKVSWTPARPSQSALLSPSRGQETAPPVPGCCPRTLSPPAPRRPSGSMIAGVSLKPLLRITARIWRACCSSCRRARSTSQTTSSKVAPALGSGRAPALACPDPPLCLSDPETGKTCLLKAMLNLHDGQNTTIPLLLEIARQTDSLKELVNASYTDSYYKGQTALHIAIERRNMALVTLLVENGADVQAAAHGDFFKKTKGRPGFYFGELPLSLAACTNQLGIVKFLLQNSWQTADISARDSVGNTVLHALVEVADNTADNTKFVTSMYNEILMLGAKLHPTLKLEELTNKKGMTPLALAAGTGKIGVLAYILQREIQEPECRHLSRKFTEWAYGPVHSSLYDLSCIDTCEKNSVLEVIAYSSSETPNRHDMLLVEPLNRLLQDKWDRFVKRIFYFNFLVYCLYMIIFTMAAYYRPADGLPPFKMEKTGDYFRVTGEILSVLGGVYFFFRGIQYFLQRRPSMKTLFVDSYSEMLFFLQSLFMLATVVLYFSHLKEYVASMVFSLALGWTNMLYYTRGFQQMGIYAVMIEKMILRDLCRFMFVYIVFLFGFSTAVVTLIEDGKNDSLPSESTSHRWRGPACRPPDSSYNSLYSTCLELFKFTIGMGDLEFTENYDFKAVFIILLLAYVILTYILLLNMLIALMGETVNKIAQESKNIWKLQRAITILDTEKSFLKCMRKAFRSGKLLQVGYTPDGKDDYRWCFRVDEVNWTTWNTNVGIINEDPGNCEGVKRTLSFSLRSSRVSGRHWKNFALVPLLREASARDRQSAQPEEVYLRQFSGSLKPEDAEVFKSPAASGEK
Chain of TRPV1 Y454A mutant (Q8NER1 whole entry Y455A): as the sequence (Q8NER1 whole entry, stated change not applied) above, with Y455A counted along it
Chain of TRPV1 Y453A mutant (Q8NER1 whole entry Y454A): as the sequence (Q8NER1 whole entry, stated change not applied) above, with Y454A counted along it
Chain of TRPV1 K466A mutant (Q8NER1 1-837 isoform Q8NER1-3, stated change not applied): as the sequence (Q8NER1 1-837 isoform Q8NER1-3 V456A) above, with A456V counted along it
Chain of TRPV1 YNA2 double mutant (Q8NER1 whole entry Y454A, form open): as the sequence (Q8NER1 whole entry, stated change not applied) above, with Y454A counted along it

Compound: COc1cc(CNC(=O)CCCC/C=C/C(C)C)ccc1O [capsaicin, reference compound]
- inward peak current in control oocytes ([1]; 1 μM): did not result in any inward peak current
- reversal membrane voltage potential of capsaicin-induced inward current ([2]; 1 μM capsaicin, ramp −100 to +80 mV): ~−10 mV
- effect of agonist on current ([2]; 1 μM, holding potential −80 mV): stimulated an inward current

Compound: Oc1cc2c(cc1O)CN(C(=S)NCCc1ccc(Cl)cc1)CCC2 [capsazepine, reference compound]
- effect of antagonist on capsaicin-stimulated inward current ([2]; 10 μM capsazepine cotreated with 1 μM capsaicin): blocked the capsaicin-stimulated inward current
- inhibition at 10 µM ([2]; 10 μM capsazepine cotreated with 1 μM capsaicin, −80 mV, read-out: percent inhibition of capsaicin-induced inward current): 79.5 ± 4.5%

Compound: gomisin A
- Vmax [3]: 64.7 ± 2.1
- n (Hill coefficient) [3]: 2.3 ± 0.5
- Vmax [4]: 67.9 ± 1.5
- n (Hill coefficient) [4]: 1.6 ± 0.5
- Vmax [5]: 24.7 ± 2.0
- n (Hill coefficient) [5]: 1.3 ± 0.5
- Vmax [6]: 91.5 ± 2.6
- n (Hill coefficient) [6]: 1.8 ± 0.8
- Vmax [7]: 38.3 ± 2.4
- n (Hill coefficient) [7]: 1.2 ± 0.5
- Vmax [8]: 79.2 ± 3.1
- n (Hill coefficient) [8]: 2.2 ± 0.8
- inward current in control oocytes on coapplication ([1]; 10 μM gomisin A coapplied with 1 μM capsaicin, H2O-injected oocytes): did not result in an inward current
- inward peak current in control oocytes ([1]; 10 μM): did not result in any inward peak current
- Vmax [9]: 64.4 ± 2.6
- n (Hill coefficient) [9]: 1.7 ± 0.6
- effect of compound alone on currents of human TRPV1 receptor ([2]; 100 μM alone, holding potential −80 mV): had no effect
- percent inhibition of capsaicin-induced inward current ([2]; 100 μM gomisin A coapplied with 1 μM capsaicin, −80 mV): 46.5 ± 4.5%
- inhibition of capsaicin-induced current ([2]; at +80 mV): 42.6 ± 11.2%
- inhibition of capsaicin-induced current ([2]; at −100 mV): 71.1 ± 16.2%
- Vmax ([2]; […], inhibition of capsaicin-induced current, holding potential −80 mV): 72.9 ± 1.0
- manner of attenuation of capsaicin-elicited inward peak currents ([2]; cotreatment with capsaicin): reversible, voltage insensitive, concentration dependent, and noncompetitive
- percent inhibition of capsaicin-induced inward current ([2]; preapplication of gomisin A, 1 μM capsaicin): 48.2 ± 7.2%
- Vmax [10]: 59.2 ± 3.0
- n (Hill coefficient) [10]: 2.2 ± 0.8
- Vmax [11]: 68.3 ± 3.5
- n (Hill coefficient) [11]: 1.8 ± 0.3
- Vmax [12]: 17.9 ± 6.5
- Vmax [13]: 72.5 ± 5.6
- n (Hill coefficient) [13]: 2.1 ± 0.7
